According to patent publication US20140335050A1, “METHODS, COMPOSITIONS, AND KITS FOR THE TREATMENT OF CANCER” (The General Hospital Corporation, priority 2011, published 2014):
Entries after “also recorded” stand apart in the source; their conditions may differ.

Tests used:
Format in all cases: cell-based, human
[1] = tested on: MU89 melanoma cell line; assay: Antibody staining and flow cytometry (intracellular Melan-A/MART-1, gp100, TRP-2; surface MHC Class I/II)
[2] = tested on: U-118 MG glioma cell line; assay: Antibody staining and flow cytometry (intracellular gp100; surface MHC Class I/II); conditions: for Class I MHC, geometric mean of surface staining (W6/32): U-118
[3] = tested on: MU89 MART::EGFP cell line; assay: Melan-A/MART-1 promoter-driven EGFP reporter, kinetics by flow cytometry; conditions: MU89 MART::EGFP (FIG. 11)
Procedure: FIG. 11 is a set of four graphs showing the kinetics of Melan-A/MART-1 increase. […] The same number of cells per well were plated in each well of a 24 well plate and drug was added on day zero. Each day cells were collected and assayed for that time point. Control untreated cells are shown for comparison. The data are from one representative experiment.
A kinetic analysis was performed to determine the effect of Hsp90 inhibition on Melan-A/MART-1 promoter activity over time. […] Reporter activity increases steadily for the first 72 hours of Hsp90 inhibition, and then plateaus. The need for continued presence of Hsp90 inhibitors in order for them to be effective (i.e. whether the drug can be removed after short exposure, or whether it must it be continually present) was assessed. […] To achieve full signal enhancement, it is desirable to retain the drug for at least 48 hours, after which the effect remains constant or slightly decreases.
The generation and application of EGFP reporter cells has been previously described. Briefly, a 1200 base pair human genomic DNA segment encompassing the Melan-A/MART-1 promoter was used to generate a construct driving expression of the EGFP reporter gene. Stable transfectants with this construct were generated in the low-antigen cell line A375 and the high-antigen line MM96L+ and MU89. The EGFP expression response patterns of these cells to IFN-beta and MAP kinase inhibitors recapitulates the antigen up-regulation of endogenous Melan-A/MART-1 induced by these agents.
(§1) Intracellular staining and flow cytometric analyses of cytoplasmic Melan-A/MART-1, and gp100 expression were performed as described previously. Cells were fixed with 1% formaldehyde, permeabilized with 0.1% saponin, stained with monoclonal antibodies to melanocyte antigens. Antibodies were obtained with specificity for: Melan-A/MART-1 from Vector Labs (Burlingame, Calif.); gp100/HMB45 from DakoCytomation (Carpinteria, Calif.) and then visualized with goat anti-mouse FITC-conjugated secondary antibody from Invitrogen (Frederick, Md.). The level of EGFP was determined by flow cytometry of unfixed cells washed and resuspended in 1×PBS. Surface staining of MHC Class I was carried out using the antibody W6/32 on cells harvested with Cell Stripper from MediaTech Inc. (Manassas, Va.) and carried out on ice.

[4] = tested on: HeLa cervical carcinoma cells; assay: Surface antibody staining and flow cytometry (MHC Class I/II); conditions: for Class I MHC, geometric mean of surface staining (W6/32): 4 day IFN-β pre-treatment (5000 Units/ml), with PU-H71 0.3 where labelled (label IFN-β: no inhibitor)
Procedure: as §1
(§2) Cell were seeded at 1×10^6 cells in a T25 flask with 10 ml of media for the 4 day IFN-beta pre-treatments. Cells were then harvested and plated in 24 well plate at 1×10^5 cells per well in 1 ml of media for 3 day treatments.
(§3) For surface staining of HLA Class I and II antigens, cells were harvested using CellStripper™ from Mediatech (Manassas, Va.). All staining steps were performed on ice. Following a first incubation with antibody to Class I (W6/32) or Class II (L243) for 30 minutes. Stained cells were washed twice with cold PBS and then stained with a goat anti-mouse FITC secondary antibody to allow for quantitative analysis by flow cytometry. For evaluation of cytoplasmic antigens, including Melan-A/MART-1 and gp100, cells were first fixed in paraformaldehyde and permeabilized with saponin as previously described. Staining for cytoplasmic antigens was carried out at room temperature (22° C.).

[5] = tested on: MCF-7 breast cancer cells; assay: as above
Procedure: as §1, §2, §3

[6] = tested on: EBV-19 B cell lymphoma cells; assay: as above; conditions: three days, IFN-β 5000 Units/ml
Procedure: as §1, §3

[7] = tested on: Jurkat T cell lymphoma cells; assay: as above
Procedure: as §1, §3

[8] = MU89, 3 days, IFN-beta 5000 Units/ml, 17-AEP 1.0, PU-H71 0.3, CCT018159 10.0 μg/ml
[9] = MU89, three days, IFN-β 5000 Units/ml, IFN-γ 100 ng/ml, PU-H71 0.3 mg/ml
[10] = MU89 cells, Table 20, single agent or simultaneous combination
[11] = U118 cells, Table 20, single agent or simultaneous combination
[12] = HeLa cells, Table 20, single agent or simultaneous combination
[13] = MCF-7 cells, Table 20, single agent or simultaneous combination

## CC(C)NCCCn1c(Sc2cc3c(cc2I)OCO3)nc2c(N)ncnc21 [PU-H71]
[1]; [8]
  Class I, geometric mean of surface staining (W6/32): 66
  MART-1, geometric mean of intracellular staining: 147
  TRP-2, geometric mean of intracellular staining: 214
  gp100, geometric mean of intracellular staining: 381
[1]; MU89, 4 day IFN-β pre-treatment (5000 Units/ml), then 3 days with fresh IFN-β and the labelled HSP90 inhibitor (label IFN-β: no inhibitor), 17-AEP 1, PU-H71 0.3, CCT018159 10 mg/ml
  MHC Class I, geometric mean of surface staining (W6/32): 390
[1]; MU89, 4 day IFN-β pre-treatment (5000 Units/ml), then 3 days without IFN-β with the labelled HSP90 inhibitor (label IFN-β: no inhibitor), 17-AEP 1, PU-H71 0.3, CCT018159 10 mg/ml
  MHC Class I, geometric mean of surface staining (W6/32): 307
[1]; MU89, IFN-beta pre-treatment, then PU-H71 for 3 days (FIG. 22)
  Class I antigen induction, sequential treatment: synergistically enhanced; also recorded: far exceeded what was achieved with either drug alone
[1]; MU89, IFN-gamma for 3 days, subsequently PU-H71 (FIG. 23)
  Class II antigen level, sequential treatment: significantly greater than that achieved with IFN-gamma alone
[1]; MU89, single agent for 3 days, no IFN-β pre-treatment, IFN-β 5000 Units/ml
  MHC Class I, geometric mean of surface staining (W6/32): 75
[1]; MU89, three days, IFN-β 5000 Units/ml
  MHC Class I, geometric mean of surface staining (W6/32): 66
[1]; [9]
  MHC Class I, geometric mean of surface staining (W6/32): 99
  MHC Class II, geometric mean of surface staining (L2443): 43
[1]; [10]
  L243 (MHC Class II surface staining): 4.1
  W6/32 (MHC Class I surface staining): 72.1
[1]; MU89 cells, Table 21, no pre-treatment, treatment as labelled
  L243 (MHC Class II surface staining): 5
[1]; MU89 cells, Table 21, pre-treatment IFN-G (3 days), then treatment as labelled
  L243 (MHC Class II surface staining): 338
[1]; MU89 cells, Table 21, substance given as pre-treatment (3 days) only, no subsequent treatment
  L243 (MHC Class II surface staining): 2
[1]; MU-89, Hsp90 inhibitor together with IFN-gamma
  Class II induction by IFN-gamma, combination: ablation of the IFN-gamma induction of Class II antigen
[1]; MU-89, PU-H71 together with IFN-beta
  Class I expression, combination: additive effect
[1]; MU-89, PU-H71 together with IFN-gamma
  Class I induction by IFN-gamma, combination: not further enhanced
[1]; MU-89, single agent
  L243 (MHC Class II surface staining): 4.5
[2]; Giloma-118, three days, IFN-β 5000 Units/ml, IFN-γ 100 ng/ml, PU-H71 0.3 mg/ml
  MHC Class II, geometric mean of surface staining (L2443): 4
[2]; Giloma-118, three days, IFN-β 5000 Units/ml, IFN-γ 100 ng/ml, PU-H71 0.3
  MHC Class I, geometric mean of surface staining (W6/32): 88
[2]; U118, co-treatment with IFN-gamma and PU-H71
  Class II induction, combination: prevented
[2]; U118, single agent
  L243 (MHC Class II surface staining): 4.1
[2]; [11]
  L243 (MHC Class II surface staining): 6.3
  W6/32 (MHC Class I surface staining): 135.7
[2]; 4 day IFN-β pre-treatment (5000 Units/ml), then 3 days with fresh IFN-β, with PU-H71 0.3 where labelled (label IFN-β: no inhibitor)
  Class I MHC, geometric mean of surface staining (W6/32): 184
[2]; 4 day IFN-β pre-treatment (5000 Units/ml), then 3 days without IFN-β, with PU-H71 0.3 where labelled (label IFN-β: no inhibitor)
  Class I MHC, geometric mean of surface staining (W6/32): 224
[2]; single agent for 3 days, no IFN-β pre-treatment, IFN-β 5000 Units/ml, PU-H71 0.3
  Class I MHC, geometric mean of surface staining (W6/32): 138
[2]; U-118 MG, 3 days, IFN-beta 5000 Units/ml, 17-AEP 1.0, PU-H71 0.3, CCT018159 10.0 μg/ml
  gp100, geometric mean of intracellular staining: 63
[2]; U-118 glioma, three days, IFN-β 5000 Units/ml, PU-H71 0.075-0.3
  MHC Class I, geometric mean of surface staining (W6/32): 88
[3]
  Time at which the fluorescent reporter signal is significantly enhanced (as early as): 2 days
[4]; HELA, single agent
  L243 (MHC Class II surface staining): 3.5
[4]; [12]
  L243 (MHC Class II surface staining): 3.8
  W6/32 (MHC Class I surface staining): 286.6
[4]; HeLa cells, Table 21, no pre-treatment, treatment as labelled
  L243 (MHC Class II surface staining): 4
[4]; HeLa cells, Table 21, pre-treatment IFN-G (3 days), then treatment as labelled
  L243 (MHC Class II surface staining): 185
[4]; HeLa cells, Table 21, substance given as pre-treatment (3 days) only, no subsequent treatment
  L243 (MHC Class II surface staining): 6
[4]; HeLa, then 3 days with fresh IFN-β
  Class I MHC, geometric mean of surface staining (W6/32): 137
[4]; HeLa, then 3 days without IFN-β
  Class I MHC, geometric mean of surface staining (W6/32): 168
[4]; HeLa, IFN-gamma for 3 days, subsequently PU-H71
  Class II antigen level, sequential treatment: significantly greater than that achieved with IFN-gamma alone
[4]; HeLa, PU-H71 together with IFN-beta
  Class I expression, combination: do not show the synergy
[4]; HeLa, three days, IFN-β 5000 Units/ml, IFN-γ 100 ng/ml, PU-H71 0.3 mg/ml
  MHC Class II, geometric mean of surface staining (L2443): 19
[4]; HeLa, three days, IFN-β 5000 Units/ml, IFN-γ 100 ng/ml, PU-H71 0.3
  MHC Class I, geometric mean of surface staining (W6/32): 402
[4]; HeLa, three days, IFN-β 5000 Units/ml, PU-H71 0.075-0.3
  MHC Class I, geometric mean of surface staining (W6/32): 182
[5]; MCF-7, 4 day IFN-β pre-treatment (5000 Units/ml), then 3 days with fresh IFN-β, with PU-H71 0.3 mg/ml where labelled (label IFN-β: no inhibitor)
  Class I MHC, geometric mean of surface staining (W6/32): 213
[5]; MCF-7, 4 day IFN-β pre-treatment (5000 Units/ml), then 3 days without IFN-β, with PU-H71 0.3 mg/ml where labelled (label IFN-β: no inhibitor)
  Class I MHC, geometric mean of surface staining (W6/32): 227
[5]; MCF-7, PU-H71 and IFN-gamma
  Class II induction, combination: inhibited
[5]; MCF-7, addition of PU-H71
  Class I stimulation induced with IFN-beta or IFN-gamma, combination: diminished
[5]; MCF-7, single agent
  L243 (MHC Class II surface staining): 4.7
[5]; MCF-7, single agent for 3 days, no IFN-β pre-treatment, IFN-β 5000 Units/ml, PU-H71 0.3 mg/ml
  Class I MHC, geometric mean of surface staining (W6/32): 61
[5]; MCF-7, three days, IFN-β 5000 Units/ml, PU-H71 0.075-0.3 mg/ml
  MHC Class I, geometric mean of surface staining (W6/32): 61
[5]; [13]
  L243 (MHC Class II surface staining): 4.7
  W6/32 (MHC Class I surface staining): 113.0
[6]; IFN-γ 100 ng/ml, PU-H71 0.3 mg/ml
  MHC Class II, geometric mean of surface staining (L2443): 114
[6]; IFN-γ 100 ng/ml, PU-H71 0.3
  MHC Class I, geometric mean of surface staining (W6/32): 124
[6]; PU-H71 0.075-0.3
  MHC Class I, geometric mean of surface staining (W6/32): 119
[7]; single agent
  L243 (MHC Class II surface staining): 1.2
[7]; three days, IFN-β 5000 Units/ml, IFN-γ 100 ng/ml, PU-H71 0.3 μg/ml
  MHC Class I, geometric mean of surface staining (W6/32): 24
[7]; three days, IFN-β 5000 Units/ml, IFN-γ 100 ng/ml, PU-H71 0.3 mg/ml
  MHC Class II, geometric mean of surface staining (L2443): 1
[7]; three days, IFN-β 5000 Units/ml, PU-H71 0.075-0.3 μg/ml
  MHC Class I, geometric mean of surface staining (W6/32): 41
